The structures appear in SMILES notation.

As usually defined, the melting point is the temperature, or range, at which the solid turns liquid. The molecule `Cc1ccc(-c2ccc3c(c2)C=C(C(=O)Nc2ccc(CNC(CO)CO)cc2)CC3)cc1` [Compound 48, N-[4-[(1,3-dihydroxy-2-propyl)aminomethyl]phenyl]-7—(4-methylphenyl)-3,4-dihydronaphthalene-2-carboxamide] yielded a melting point of 189 to 193 °C.
Consider `Cc1ccc(-c2ccc3c(c2)C=C(C(=O)Nc2ccc(C(=O)C4CCCCN4)cc2)CCO3)cc1` (stereo not drawn) [Compound 156, N-(4—(piperidin-2-ylcarbonyl)phenyl)-7—(4-methylphenyl)-2,3-dihydro-1-benzoxepine-4-carboxamide], for which the melting point was 195 to 196 °C (dec.).
Molecule `CN1CCC(C(=O)Nc2ccc(CN(C)C3CCOCC3)cc2)=Cc2cc(-c3ccc(N4CCCCC4)cc3)ccc21` [Compound 316, 1-methyl-N-[4-[[N-methyl-N-(tetrahydro-2H-pyran-4-yl)amino]methyl]-phenyl]-7-[4-(1-piperidinyl)phenyl]-2,3-dihydro-1-benzazepine-4-carboxamide] came in with a melting point of 202 to 204 °C.
On to `Cc1csc(-c2ccc3c(c2)C=C(C(=O)Nc2ccc(CN(C)C4CCOCC4)cc2)CCO3)c1` [Compound 292, N-[4-[N-methyl-N-(tetra-hydropyran-4-yl)aminomethyl]phenyl]-7-(4-methyl-2-thienyl)-2,3-dihydro-1-benzoxepine-4-carboxamide], for which the melting point was 147 to 148 °C.
In the case of `Cc1ccc(-c2ccc3c(c2)C=C(C(=O)Nc2ccc(C(O)c4ccccn4)cc2)CCO3)cc1` (stereo not drawn) [Compound 166, N-[4-[hydroxy(2-pyridyl)-methyl]phenyl]-7—(4-methylphenyl)-2,3-dihydro-1-benzoxepine-4-carboxamide], the melting point lay within 215 to 217 °C.
Take `Cc1ccc(-c2ccc3c(c2)C=C(C(=O)Nc2ccc(C[S+]([O-])c4ccccc4)cc2)CCO3)cc1` (stereo not drawn) [Compound 108, 7—(4-methylphenyl)-N-(4—(phenylsulfinylmethyl)phenyl)-2,3-dihydro-1-benzoxepine-4-carboxamide]: the melting point fell in the range of 127 to 128 °C.
Molecule `COc1ccc(N2CCN(Cc3ccc(NC(=O)/C=C/c4cccc(-c5ccc(C)cc5)c4)cc3)CC2)cc1` [Compound 62, (E)-N-[4-[1—(4-methoxy-phenyl)-4-piperazinylmethyl]phenyl]-3—(4-methylphenyl)cinnamamide] gave a melting point of 207 to 208 °C.
`CCP(=O)(CC)Cc1ccc(NC(=O)C2=Cc3cc(-c4ccc(C)cc4)ccc3OCC2)cc1` [Compound 163, N-(4-diethylphosphorylmethylphenyl)-7—(4-methylphenyl)-2,3-dihydro-1-benzoxepine-4-carboxamide] came in with a melting point of 240 to 241 °C.
In turn, `Cc1ccc(-c2ccc3c(c2)C=C(C(=O)Nc2ccc(CNc4ccccc4)cc2)CCO3)cc1` [Compound 115, N-(4—((phenylamino)methyl)phenyl)-7—(4-methylphenyl)-2,3-dihydro-1-benzoxepine-4-carboxamide] registered a melting point of 157 to 158 °C.
Regarding `COCOc1ccc[n+]([O-])c1Cc1ccc(NC(=O)C2=Cc3cc(-c4ccc(C)cc4)ccc3OCC2)cc1` [Compound 173, N-[4—(1-oxido-3-methoxymethoxypyridin-2-ylmethyl)phenyl]-7—(4-methylphenyl)-2,3-dihydro-1-benzoxepine-4-carboxamide], the melting point lay within 206 to 208 °C.
`Cc1ccc(-c2ccc3c(c2)C=C(C(=O)Nc2ccc(CCN4CCCCC4)cc2)CCO3)cc1` [Compound 99, N-(4—(2-piperidinoethyl)phenyl)-7—(4-methylphenyl)-2,3-dihydro-1-benzoxepine-4-carboxamide] yielded a melting point of 201 to 202 °C.
The result for `CN(Cc1ccc(NC(=O)C2=Cc3cc(-c4ccc5c(c4)OCO5)ccc3SCC2)cc1)C1CCOCC1` [Compound 286, 7-(3,4-methylenedioxyphenyl)-N-[4-[N-methyl-N-(tetrahydropyran-4-yl)aminomethyl]phenyl]-2,3-dihydro-1-benzothiepine-4-carboxamide] reads 193 to 194 °C.

For the origin of these results see patent US6413947B1, “Anilide derivative, production and use thereof” (Takeda Chemical Industries, Ltd., priority 1997, dated 2002).
